Consider twelve molecules from publication PMC6017749, “Exploring N-acyl-4-azatetracyclo[5.3.2.0^2,6.0^8,10]dodec-11-enes as 11β-HSD1 Inhibitors” (Molecules : A Journal of Synthetic Chemistry and Natural …, 2018).

Each structure is given as a SMILES string. pIC50: −log10 of the molar value.

Series [1] deals with T1, human 11β-HSD1 (Homo sapiens, UniProt P28845).
T1 construct: The assay uses human liver microsomes (HLM), where the enzyme is expressed; tissue Celsis In-vitro Technologies; host or cells: mixed sex human liver microsomes
Description: 11β-HSD1 enzyme inhibition assay in human liver microsomes (3H-cortisone to 3H-cortisol, SPA). To be noted: for inhibition at 10 µM: read-out: hHSD1 % inh at 10 µM; for pIC50: read-out: hHSD1 IC50. The format is biochemical. How it is done: A preliminary screen was performed using a human microsome assay with compounds at 10 µM in order to assess their potential inhibition of the target enzyme (Table 2). Percentage of inhibition was determined by measuring the conversion of ^3H-cortisone to ^3H-cortisol by capturing liberated ^3H-cortisol on anti-cortisol (HyTest Ltd., Turku, Finland)-coated scintillation proximity assay beads. The assay uses human liver microsomes (HLM), where the enzyme is expressed, and NADPH as the cofactor needed by the enzyme. Eight of the thirteen new compounds presented 100% inhibition of the human 11β-HSD1 in this single concentration assay, so dose-response curves were performed to get their IC50 values.
11β-HSD1 activity was determined in mixed sex, human liver microsomes (HLM, Celsis In-vitro Technologies) by measuring the conversion of ^3H-cortisone to ^3H-cortisol. Percentage inhibition was determined relative to a no inhibitor control. An amount of 5 μg of HLM were pre-incubated at 37 °C for 15 min with inhibitor and 1 mM NADPH in a final volume of 90 μL Krebs buffer. 10 μL of 200 nM ^3H-cortisone was then added followed by incubation at 37 °C for a further 30 min. The assay was terminated by rapid freezing on dry ice and ^3H-cortisone to ^3H-cortisol conversion determined in 50 μL of the defrosted reaction by capturing liberated ^3H-cortisol on anti-cortisol (HyTest Ltd)-coated scintillation proximity assay beads (protein A-coated YSi, GE Healthcare). Reported values are the average of 1–3 measurements. A nanomolar 11β-HSD1 inhibitor, UE2316, was added as a positive control within in each set of assays.

In series [2] the target is T1, human 11β-HSD1. Description: Cellular 11β-HSD1 enzyme inhibition assay (HEK293 stably transfected, cortisol by LC/MS). To be noted: for inhibition at 10 µM: HEK293 transfected with human 11β-HSD1, read-out: HEK hHSD1 % inh at 10 µM. It counts as cell-based. How it is done:
Those compounds with submicromolar IC50 values (4, 6, 8, 9 and 16) were further evaluated in terms of cellular potency, selectivity over 11β-HSD2, and metabolic stability as follows (Table 2, 5th, 6th, and 7th column, respectively). Cellular potency was assessed using Human Embryonic Kidney 293 (HEK293) cells stably transfected with the 11β-HSD1 gene. Cells were incubated with substrate (cortisone) and percentage of inhibition was determined by measuring the conversion of cortisone to cortisol by LC/MS. The results were in line with the previous results obtained in the microsomal assay.
The cellular 11β-HSD1 enzyme inhibition assay was performed using HEK293 cells stably transfected with the human 11β-HSD1 gene. Cells were incubated with substrate (cortisone) and product (cortisol) was determined by LC/MS. Cells were plated at 2 × 10^4 cells/well in a 96-well poly-D-lysine coated tissue culture microplate (Greiner Bio-one, Monroe, NC, USA) and incubated overnight at 37 °C in 5% CO2 […]. Compounds to be tested were solubilized in 100% dimethylsulfoxide (DMSO) at 10 mM and serially diluted in water and 10% DMSO to final concentration of 10 µM in 10% DMSO. Then 10 µL of each test dilution and 10 µL of 10% DMSO (for low and high control) were dispensed into the well of a new 96-well microplate (Greiner Bio-one). Medium was removed from the cell assay plate and 100 µL of Dulbecco’s Modified Eagle’s Medium DMEM solution (containing 1% penicillin, 1% streptomycin and 300 nM cortisone) added to each well. Cells were incubated for 2 h at 37 °C in 5% CO2 […]. Following incubation, medium was removed from each well into an Eppendorf containing 500 µL of ethyl acetate, mixed by vortex and incubated at r.t. for 5 min. A calibration curve of known concentrations of cortisol in assay medium was also set up and added to 500 µL of ethyl acetate, vortexed and incubated as above. The supernatant of each Eppendorf was removed to a 96-deep-well plate and dried down under […] at 65 °C. Each well was solubilized in 100 µL 70:30 H2O:acetonitrile (ACN) and removed to a 96-well V-bottomed plate for LC/MS analysis. Separation was carried out on a Sunfire 150 × 2.1 mm, […] column using a H2O:ACN gradient profile. Typical retention times were 2.71 min for cortisol and 2.80 min for cortisone. The peak area was calculated and the concentration of each compound determined from the calibration curve. Reported values are the average of 1–3 measurements.

Series [3] is described as follows: Microsomal stability assay in human liver microsomes. To be noted: remaining compound after 30-min incubation in HLM. It counts as in vitro ADME. How it is done:
(§1) Selectivity over 11β-HSD2 was also assessed in a cell-based assay using the same methodology as before (HEK293 stably transfected with the 11β-HSD2 gene). […] Finally, metabolic stability was determined using HLM, which are widely used to predict the degree of primary metabolic clearance in the liver. Each compound was incubated over 30 min with HLM and the percentage of remaining compound after this incubation period was determined by calculating compound concentration after and before by LC/MS.
The microsomal stability of each compound was determined using human liver microsomes (HLM, Celsis In-vitro Technologies, Baltimore, MD, USA). Microsomes were thawed and diluted to a concentration of 2 mg/mL in 50 mM sodium phosphate buffer pH 7.4. Each compound was diluted in 4 mM NADPH (made in the phosphate buffer above) to a concentration of 10 µM. Two identical incubation plates were prepared to act as a 0 min and a 30 min time point assay. 30 µL of each compound dilution was added in duplicate to the wells of a U-bottom 96-well plate and warmed at 37 °C for approximately 5 min. Verapamil, lidocaine, and propranolol at 10 µM concentration were utilized as reference compounds in this experiment. Microsomes were also pre-warmed at 37 °C before the addition of 30 µL to each well of the plate resulting in a final concentration of 1 mg/mL. The reaction was terminated at the appropriate time point (0 or 30 min) by addition of 60 µL of ice-cold 0.3 M trichloroacetic acid (TCA) per well. The plates were centrifuged for 10 min at 112× g and the supernatant fraction transferred to a fresh U-bottom 96-well plate. Plates were sealed and frozen at −20 °C prior to MS analysis. LC-MS/MS was used to quantify the peak area response of each compound before and after incubation with HLM using MS tune settings established and validated for each compound. These peak intensity measurements were used to calculate the percentage remaining after incubation with HLM for each hit compound. Reported values are the average of 1–3 measurements.

In the next series the target is T2, human 11β-HSD2 (Homo sapiens, UniProt P80365).
T2 construct: stably transfected with the full-length gene coding for human 11β-HSD2; expressed in transfected cells; host or cells: HEK293
T2 sequence (P80365 1-405): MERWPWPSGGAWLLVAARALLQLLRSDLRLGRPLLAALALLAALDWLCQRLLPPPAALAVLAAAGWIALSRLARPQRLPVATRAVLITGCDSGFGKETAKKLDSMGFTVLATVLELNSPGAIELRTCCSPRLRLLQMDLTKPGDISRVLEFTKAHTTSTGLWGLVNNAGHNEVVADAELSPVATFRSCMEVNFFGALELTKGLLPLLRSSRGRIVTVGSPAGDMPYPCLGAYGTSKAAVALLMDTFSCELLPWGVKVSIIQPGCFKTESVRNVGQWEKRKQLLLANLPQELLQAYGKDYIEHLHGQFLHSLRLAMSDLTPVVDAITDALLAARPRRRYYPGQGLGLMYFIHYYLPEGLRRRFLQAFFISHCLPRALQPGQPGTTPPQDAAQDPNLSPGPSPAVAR
In words: Cellular 11β-HSD2 enzyme inhibition assay (HEK293 stably transfected). It counts as cell-based. To be noted: HEK293, 10 µM, HEK293 transfected with human 11β-HSD2; read-out: HEK hHSD2 % inh at 10 µM. How it is done: as §1
For measurement of inhibition of 11β-HSD2, HEK293 cells stably transfected with the full-length gene coding for human 11β-HSD2 were used. The protocol was the same as for the cellular 11β-HSD1 enzyme inhibition assay, only changing the substrate, this time cortisol, and the concentrations of the tested compounds, 10, 1, and 0.1 µM. Reported values are the average of 1–3 measurements.

[4] abbreviates: 10 µM, human liver microsomes, relative to no inhibitor control.

T1 sequence (P28845 whole entry): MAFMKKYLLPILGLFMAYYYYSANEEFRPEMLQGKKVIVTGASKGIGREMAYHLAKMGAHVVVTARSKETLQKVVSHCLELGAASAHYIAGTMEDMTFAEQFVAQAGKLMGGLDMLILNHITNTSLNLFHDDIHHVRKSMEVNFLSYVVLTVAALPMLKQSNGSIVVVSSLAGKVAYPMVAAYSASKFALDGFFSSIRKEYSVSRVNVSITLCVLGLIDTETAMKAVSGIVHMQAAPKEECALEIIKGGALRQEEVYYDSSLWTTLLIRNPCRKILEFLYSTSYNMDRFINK

By melting point is commonly meant the temperature of the solid-liquid transition. As to `CN1CCC(C(=O)N2CC3C4C=CC(C5CC45)C3C2)CC1` (stereo not drawn) [Compound 12, (4-Azatetracyclo[5.3.2. 0^2,6.0^8,10]dodec-11-en-4-yl)(1-methylpiperidin-4-yl)methanone], the melting point was 100 to 101 °C.

Turning to `O=C(c1ccnc(Cl)c1)N1CC2C3C=CC(C4CC34)C2C1` (stereo not drawn) [Compound 11, (4-Azatetracyclo[5.3.2. 0^2,6.0^8,10]dodec-11-en-4-yl)(2-chloropyridin-4-yl)methanone], the melting point lay within 135 to 136 °C.

The term pIC50 denotes the negative decadic logarithm of the IC50, by convention in mol/L. `CC(C)(C)C(=O)N1CC2C3C=CC(C4CC34)C2C1` (stereo not drawn) [Compound 6, (4-Azatetracyclo[5.3.2. 0^2,6.0^8,10]dodec-11-en-4-yl)(tert-butyl)methanone]: the melting point lay in the range of 91 to 92 °C. Also, the inhibition at 10 µM on human 11β-HSD1 [1] (setting [4]) was found to be 100%. The pIC50 on human 11β-HSD1 [1] (human liver microsomes) is 6.18. In addition, the inhibition at 10 µM at human 11β-HSD1 [2] amounted to 41%. For the same molecule, the “HLM % Parent” value in series [3] was 60%. In addition, on human 11β-HSD2, the inhibition at 10 µM came out at 71%.

In the case of `Nc1c(Cl)cc(C(=O)N2CC3C4C=CC(C5CC45)C3C2)cc1Cl` (stereo not drawn) [Compound 8, (4-Amino-3,5-dichlorophenyl)(4-azatetracyclo[5.3.2. 0^2,6.0^8,10]dodec-11-en-4-yl)methanone], the melting point lay within 186 to 187 °C. For the same molecule, the inhibition at 10 µM at human 11β-HSD1 [1] (setting [4]) worked out at 100%. Further, on human 11β-HSD1 [1] (human liver microsomes), the pIC50 is 7.35. Further, at human 11β-HSD1 [2] (HEK293 transfected with human 11β-HSD1), the “HEK hHSD1 % inh at 10 µM” value is “complete inhibition”. Besides, at human 11β-HSD1 [2], the inhibition at 10 µM worked out at 100%. For the same molecule, the “HLM % Parent” value in series [3] was 13%. Further, at human 11β-HSD2, the inhibition at 10 µM came to 86%.

`O=C(c1cccs1)N1CC2C3C=CC(C4CC34)C2C1` (stereo not drawn) [Compound 7, (4-Azatetracyclo[5.3.2.0^2,6.0^8,10]dodec-11-en-4-yl)(thien-2-yl)methanone] had a melting point of 104 to 105 °C. Moreover, at human 11β-HSD1 [1] (setting [4]), the “hHSD1 % inh at 10 µM” value is 49% and the inhibition at 10 µM is less than 50%.

On to `O=C(c1csc(-c2cn[nH]c2)c1)N1CCC(F)(c2ccccc2Cl)CC1` [UE2316, reference compound], for which the “IC50 of positive control” value against human 11β-HSD1 [1] (positive control within each set of assays, normal range per ref 20) was “within the normal range”.

As to `O=C(c1ccc(Cl)nc1)N1CC2C3C=CC(C4CC34)C2C1` (stereo not drawn) [Compound 10, (4-Azatetracyclo[5.3.2. 0^2,6.0^8,10]dodec-11-en-4-yl) (6-chloropyridin-3-yl)methanone], the melting point was in the range of 101 to 102 °C.

Molecule `O=C(c1ccccc1)N1CC2C3C=CC(C4CC34)C2C1` (stereo not drawn) [Compound 4, (4-Azatetracyclo[5.3.2.0^2,6.0^8,10]dodec-11-en-4-yl)(phenyl)methanone] displayed a melting point of 65 to 66 °C. At human 11β-HSD1 [1] (setting [4]), the inhibition at 10 µM came out at 100%. For the same molecule, the pIC50 on human 11β-HSD1 [1] (human liver microsomes) is 6.26. Moreover, the inhibition at 10 µM on human 11β-HSD1 [2] was 77%. Also, the “HLM % Parent” value in series [3] is on record as 85%. Besides, the inhibition at 10 µM on human 11β-HSD2 is 84%.

The molecule `O=C(c1ccccn1)N1CC2C3C=CC(C4CC34)C2C1` (stereo not drawn) [Compound 5, (4-Azatetracyclo[5.3.2.0^2,6.0^8,10]dodec-11-en-4-yl)(pyridin-2-yl)methanone] registered a melting point of 110 to 111 °C. In addition, on human 11β-HSD1 [1] (setting [4]), the inhibition at 10 µM was determined as 100%. Besides, at human 11β-HSD1 [1] (human liver microsomes), the pIC50 is 5.37.

`O=C(c1ccc(N2CCN(c3ccccc3)CC2)nc1)N1CC2C3C=CC(C4CC34)C2C1` (stereo not drawn) [Compound 14, (4-Azatetracyclo[5.3.2.0^2,6.0^8,10]dodec-11-en-4-yl)[6-(4-phenylpiperazin-1-yl)pyridin-3-yl]methanone]: the melting point fell in the range of 90 to 91 °C. Further, at human 11β-HSD1 [1] (setting [4]), the inhibition at 10 µM is 100%. At human 11β-HSD1 [1] (human liver microsomes), the negative logarithm of the IC50 (pIC50) is 5.26.

Molecule `O=C(c1ccc(N2CCN(c3ccc(C(F)(F)F)cc3)CC2)nc1)N1CC2C3C=CC(C4CC34)C2C1` (stereo not drawn) [Compound 15, (4-Azatetracyclo[5.3.2.0^2,6.0^8,10]dodec-11-en-4-yl)[6-[4-(4-trifluoromethyl)phenylpiperazin-1-yl]pyridin-3-yl]methanone] came in with a melting point of 157 to 158 °C. For the same molecule, the inhibition at 10 µM at human 11β-HSD1 [1] (setting [4]) is 100%. The pIC50 at human 11β-HSD1 [1] (human liver microsomes) was 4.94.

Take `CC(=O)N1CCC(C(=O)N2CC3C4C=CC(C5CC45)C3C2)CC1` (stereo not drawn) [Compound 13, 1-[[4-(4-Azatetracyclo[5.3.2. 0^2,6.0^8,10]dodec-11-en-4-yl)carbonyl]piperidin-1-yl]ethan-1-one]: the melting point lay within 134 to 135 °C.
